# Patent US9352015B2, “Antimicrobial peptides” (priority 2009, dated 2016)
# Values joined by “and” are separate entries in the source; they are usually repeats but may differ in a detail not shown here. Equal values may be shown once. Read-outs that look alike come from different tables or passages of the source.
# Experiments:
# Acinetobacter baumannii = format: cell-based
# How it was run: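 Microtiter broth dilution in triplicate, mainly LB no-salt medium (MH or BHI in some cases), peptides serially diluted, final inoculum 5×10^5 CFU/ml (1×10^5 CFU/ml in MH variant); 24 h at 37° C. MIC is the lowest peptide concentration inhibiting growth, given in micromolar against clinical isolates.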
# [1] = test system: Methicillin Resistant Staphylococcus aureus (MRSA) and Staphylococcus aureus; format: cell-based; conditions: Mueller Hinton medium; for MIC: 24 hours at 37° C.
# How it was run: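 MICs by microtiter broth dilution in triplicate determinations, mostly LB no-salt medium (sometimes MH or BHI), final inoculum 5×10^5 CFU/ml (1×10^5 CFU/ml in the MH variant), 24 h at 37 °C. MIC is the lowest peptide concentration inhibiting growth; tested on 20 clinical MRSA and S. aureus isolates.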
# [2] = RP-HPLC retention as measure of overall peptide hydrophobicity; format: physicochemical; conditions: pH 2, room temperature
# Method: Crude and purified peptides were analyzed on an Agilent 1100 series liquid chromatograph (Little Falls, Del.). Runs were performed on a Zorbax 300 SB-C8 column (150×2.1 mm I.D.; 5 μm particle size, 300 Å pore size) from Agilent Technologies using linear AB gradient (1% acetonitrile/min) and a flow rate of 0.25 ml/min, where eluant A was 0.2% aqueous TFA, pH 2 and eluant B was 0.2% TFA in acetonitrile.
# [3] = RP-HPLC temperature profiling (peptide self-association parameter PA); format: physicochemical; conditions: enantiomer pairs of V681 analogs, 5° C. to 80° C., relative to peptide C
# How it was run: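 Peptide retention was profiled by RP-HPLC at pH 2 from 5 °C to 80 °C in 3 °C increments, using a linear gradient of 0.5% acetonitrile/min. The monomeric random-coil control peptide C profile was subtracted. PA is the maximum change in retention time relative to control C; higher PA means greater self-association.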
# human erythrocytes = assay: Hemolytic activity against human erythrocytes (HC50 / MHC, microtiter dilution); format: cell-based; conditions: V681 analog studies
smiles,measurement,setting,value
"CC[C@@H](C)[C@@H](NC(=O)[C@@H](C)NC(=O)[C@@H](CCCCN)NC(=O)[C@@H](CC(C)C)NC(=O)[C@@H](C)NC(=O)[C@H](NC(=O)[C@@H](Cc1c[nH]cn1)NC(=O)[C@@H](CC(C)C)NC(=O)[C@H](NC(=O)[C@H](NC(=O)[C@@H](CCCCN)NC(=O)[C@@H](CCCCN)NC(=O)[C@@H](C)NC(=O)[C@@H](CO)NC(=O)[C@@H](CCCCN)NC(=O)[C@@H](Cc1ccccc1)NC(=O)[C@H](NC(=O)[C@@H](CCCCN)NC(=O)[C@@H](CC(C)C)NC(=O)[C@@H](Cc1ccccc1)NC(=O)[C@@H](CO)NC(=O)[C@@H](CCCCN)NC(=O)[C@@H](Cc1c[nH]c2ccccc12)NC(=O)[C@@H](CCCCN)NC(C)=O)[C@H](C)O)[C@H](C)O)C(C)C)[C@H](C)O)C(=O)N[C@H](CO)C(=O)N[C@H](CO)C(N)=O [Peptide D1, Ac-KWKSFLKTFKSAKKTVLHTALKAISS-amide]",MIC,"Acinetobacter baumannii; A. baumannii strain 1 ATCC 17978, Mueller Hinton medium, 24 hours at 37° C.",0.8 µM
same,MIC,"Acinetobacter baumannii; A. baumannii strain 2 ATCC 19606, Mueller Hinton medium, 24 hours at 37° C.",1.5 µM
same,MIC,"Acinetobacter baumannii; A. baumannii strain 3, 649 Blood, Mueller Hinton medium, 24 hours at 37° C.",0.8 µM
same,MIC,"Acinetobacter baumannii; A. baumannii strain 4, 689 Groin, Mueller Hinton medium, 24 hours at 37° C.",0.8 µM
same,MIC,"Acinetobacter baumannii; A. baumannii strain 5, 759 Gluteus, Mueller Hinton medium, 24 hours at 37° C.",1.5 µM
same,MIC,"Acinetobacter baumannii; A. baumannii strain 6, 821 Urine, Mueller Hinton medium, 24 hours at 37° C.",1.5 µM
same,MIC,"Acinetobacter baumannii; A. baumannii strain 7, 884 Axilla, Mueller Hinton medium, 24 hours at 37° C.",1.5 µM
same,MIC,"Acinetobacter baumannii; A. baumannii strain 8, 899 Perineum, Mueller Hinton medium, 24 hours at 37° C.",1.5 µM
same,MIC,"Acinetobacter baumannii; A. baumannii strain 9, 964 Throat, Mueller Hinton medium, 24 hours at 37° C.",1.5 µM
same,MIC,"Acinetobacter baumannii; A. baumannii strain 10, 985 Pleural fluid, Mueller Hinton medium, 24 hours at 37° C.",0.8 µM
same,MIC,"Acinetobacter baumannii; A. baumannii strain 11, 1012 Sputum, Mueller Hinton medium, 24 hours at 37° C.",0.8 µM
same,Antimicrobial Activity MIC against A. baumannii,"Acinetobacter baumannii; geometric mean (GM-MIC), 11 clinical isolates",1.1 µM
same,MIC GM (geometric mean),"Acinetobacter baumannii; geometric mean of the MIC values from 11 different isolates of Acinetobacter baumannii, Mueller Hinton medium",1.1 µM
same,Acinetobacter baumannii MICGM,"Acinetobacter baumannii; geometric mean, 11 different isolates, 24 hours at 37° C.",1.1 µM
same,MIC,[1]; S. aureus strain 1,23.9 µM
same,MIC,"[1]; S. aureus strain 2, R (MRSA resistant to Oxacillin)",12.0 µM
same,MIC,[1]; S. aureus strain 3,23.9 µM
same,MIC,"[1]; S. aureus strain 4, R (MRSA resistant to Oxacillin)",23.9 µM
same,MIC,[1]; S. aureus strain 5,23.9 µM
same,MIC,[1]; S. aureus strain 6,23.9 µM
same,MIC,"[1]; S. aureus strain 7, R (MRSA resistant to Oxacillin)",3.0 µM
same,MIC,[1]; S. aureus strain 8,95.5 µM
same,MIC,"[1]; S. aureus strain 9, R (MRSA resistant to Oxacillin)",12.0 µM
same,MIC,[1]; S. aureus strain 10,12.0 µM
same,MIC,"[1]; S. aureus strain 11, R (MRSA resistant to Oxacillin)",12.0 µM
same,MIC,"[1]; S. aureus strain 12, R (MRSA resistant to Oxacillin)",6.0 µM
same,MIC,[1]; S. aureus strain 13,1.5 µM
same,MIC,"[1]; S. aureus strain 14, R (MRSA resistant to Oxacillin)",6.0 µM
same,MIC,[1]; S. aureus strain 15,47.7 µM
same,MIC,"[1]; S. aureus strain 16, R (MRSA resistant to Oxacillin)",23.9 µM
same,MIC,[1]; S. aureus strain 17,23.9 µM
same,MIC,[1]; S. aureus strain 18,23.9 µM
same,MIC,[1]; S. aureus strain 19,47.7 µM
same,MIC,[1]; S. aureus strain 20,12.0 µM
same,MIC GM (geometric mean),[1]; geometric mean of the MIC values from 20 different isolates of MRSA/SA,15.7 µM
same,Hydrophobicity (retention time in RP-HPLC),[2],76.8 min and 76.75 min
same,PA (peptide self-association parameter),[3],2.1
same,"Hemolytic activity, minimal hemolytic concentration (MHC)",human erythrocytes,non-hemolytic
